Laboratory results as given in patent US6252121A, “Metal-ligand complex catalyzed processes” (Union Carbide Chemicals & Plastics Technology Corporation, priority 1999, dated 2001).

Tests used:
[1] = Partition of polar hydroformylation products, acetonitrile/hexane (GC); type: physicochemical; conditions: hexane/acetonitrile equal volumes
Protocol: The efficiency of the phase separation can be measured by a partition coefficient Kp of the one or more cyclic products which is defined as follows: [formula]
Solutions of polar hydroformylation products were prepared in acetonitrile. To each solution was added an equal volume of hexane, the mixture was vigorously shaken, allowed to settle and phase separate. The two phases were analyzed for polar aldehydes by gas chromatography.

[2] = Hydroformylation reaction rate of rhodium/ligand catalyst; conditions: 90° C., 300 ppm Rh, ligand/rhodium 20/1
Protocol: […] A mixture of 1,2,3,6-tetrahydrobenzaldehyde (6 grams) and octane (4 grams, internal standard) was added to the autoclave. The reaction rate was determined by gas chromatographic analyses of the samples taken during the course of reaction.
The procedure described in Example 1 was repeated with the modification of using Ligands B-F in place of Ligand A. The reaction rates for Ligands B-F are summarized in Table 1.

[3] = Relative hydroformylation reaction rates with Ligands C and G-J
Protocol: […]. A mixture of 1,2,3,6-tetrahydrobenzaldehyde (6 grams) and octane (4 grams, internal standard) was added to the autoclave. The reaction rate was determined by gas chromatographic analyses of the samples taken during the course of reaction.

[4] = Miscibility of reaction products with toluene (Comparative Example); type: physicochemical; conditions: reaction at 100° C. for 24 hours; no spontaneous phase separation
Protocol: The reaction was carried out at 100° C. for 24 hours. No spontaneous phase separation was observed upon the reaction completion.

[5] = hexane, 100 psi syngas (CO/H2 1:1)
[6] = Tetraglyme, 90° C., L/Rh ratio 20

1,3- and 1,4-cyclohexanedicarboxaldehyde
Kpartition of polar product ([1]; 5 wt. %): 38 | Kpartition of polar product ([1]; 10 wt. %): 34 | Kpartition of polar product ([1]; 20 wt. %): 35

3-cyano-1-cyclohexanecarboxaldehyde and 4-cyano-1-cyclohexanecarboxaldehyde [cyanocyclohexanecarboxaldehyde]
Kpartition of polar product ([1]; 10 wt. %): 69

CC(C)(c1ccccc1)c1ccc(OP(Oc2ccc(C(C)(C)c3ccccc3)cc2C(C)(C)c2ccccc2)Oc2ccc(C(C)(C)c3ccccc3)cc2C(C)(C)c2ccccc2)c(C(C)(C)c2ccccc2)c1 [Ligand A]
reaction rate [2, 5]: 2.5 mol/L-hr

CC(C)(C)c1ccccc1OP(Oc1ccccc1C(C)(C)C)Oc1ccccc1C(C)(C)C [Ligand B]
reaction rate [2, 5]: 3.4 mol/L-hr

CC(C)(C)c1ccc(OP(Oc2ccc(C(C)(C)C)cc2C(C)(C)C)Oc2ccc(C(C)(C)C)cc2C(C)(C)C)c(C(C)(C)C)c1 [Ligand C]
reaction rate [2, 5]: 4.0 mol/L-hr | reaction rate ([2]; toluene in place of hexane, 100 psi syngas): 4.4 mol/L-hr | Relative Rate [3, 6]: 1

CCC(C)(C)c1ccc(OP(Oc2ccc(C(C)(C)CC)cc2C(C)(C)CC)Oc2ccc(C(C)(C)CC)cc2C(C)(C)CC)c(C(C)(C)CC)c1 [Ligand D]
reaction rate [2, 5]: 3.6 mol/L-hr

CCCCCC(C)(C)c1ccc(OP(Oc2ccc(C(C)(C)CCCCC)cc2C(C)(C)CCCCC)Oc2ccc(C(C)(C)CCCCC)cc2C(C)(C)CCCCC)c(C(C)(C)CCCCC)c1 [Ligand E]
reaction rate [2, 5]: 3.7 mol/L-hr

CCCCCCCCCC(C)(C)c1ccc(OP(Oc2ccc(C(C)(C)CCCCCCCCC)cc2C(C)(C)CCCCCCCCC)Oc2ccc(C(C)(C)CCCCCCCCC)cc2C(C)(C)CCCCCCCCC)c(C(C)(C)CCCCCCCCC)c1 [Ligand F]
reaction rate [2, 5]: 3.3 mol/L-hr

COc1ccc(Op2oc3c(C(C)(C)C)cc(OC)cc3c3cc(OC)cc(C(C)(C)C)c3o2)c(C(C)(C)C)c1 [Ligand G]
Relative Rate [3, 6]: 0.46

CC(C)(C)c1cc(-c2cc(C(C)(C)C)cc(C(C)(C)C)c2Op2oc3ccccc3c3ccccc3o2)c(Op2oc3ccccc3c3ccccc3o2)c(C(C)(C)C)c1 [Ligand H]
Relative Rate ([3]; Tetraglyme, 90° C., L/Rh ratio 4): 0.34

C1CCC(P(C2CCCCC2)C2CCCCC2)CC1 [Ligand I]
Relative Rate ([3]; Tetraglyme, 120° C., L/Rh ratio 5): 0.17

O=S(=O)(O)c1cccc(P(C2CCCCC2)C2CCCCC2)c1 [Ligand J]
Relative Rate ([3]; 1-Methyl-2-pyrrolidinone, 120° C., L/Rh ratio 5): 0.14

tricyclodecane dialdehydes
miscibility with toluene [4]: completely miscible with toluene
